According to US20160206726A1, “IMMUNOTHERAPY” (priority 2013, published 2016):

Experiments:
[1] = system: SW620 cells (colorectal cell line); experiment: SW620 colorectal cell line pulsed with cyclic or linear peptide with or without protease inhibitor cocktail; IFN-γ assayed for T cell recognition; assay type: cell-based; settings: 10 ug peptide
Experimental: SW620 cells (colorectal cell line) incubated with or without a protease inhibitor cocktail for 2 hrs at 37° C. […] These cells were incubated with peptide-specific T cells overnight and IFN-γ assayed for T cell recognition of the processed peptide.
As a control for this, T cells alone were treated with the cyclic peptide. T cells should not process the cyclic form of the peptide but would be able to present the linear form and therefore the level of IFN-γ produced in this control would account for the amount of linear peptide present in the vial of cyclic peptide.

[2] = system: LCLs (tumour B cells); experiment: Plasma stability of cyclic peptide in LCL model (IFN-γ T cell recognition after plasma treatment); assay type: in vitro ADME, human
Experimental: LCLs (tumour B cells) were incubated with or without a protease inhibitor cocktail (PIC) for 2 hrs at 37° C. […] These cells were incubated with peptide-specific T cells overnight and IFN-γ assayed for T cell recognition of the processed peptide.

[3] = system: LCLs (tumour B cells); experiment: LCL pulsed with cyclic or linear peptide with or without protease inhibitor cocktail; IFN-γ assayed for T cell recognition; assay type: cell-based; settings: 10 ug peptide
Experimental: LCLs (tumour B cells) were incubated with or without a protease inhibitor cocktail for 2 hrs at 37° C. […] (SEQ ID No: 278). The protease cleavage sequence “FR” is recognised by Cathepsin B and the T cell epitope […] is restricted to HLA-A*0201. […] These cells were incubated with peptide-specific T cells overnight and IFN-γ assayed for T cell recognition of the processed peptide.

[4] = system: SW620 cells (colorectal cell line); experiment: Plasma stability of cyclic peptide in colorectal cancer model (IFN-γ T cell recognition after plasma treatment); assay type: in vitro ADME, human; settings: no target cells
Experimental: (§1) These cells were incubated with peptide-specific T cells overnight and IFN-γ assayed for T cell recognition of the processed peptide.

[5] = system: healthy B cells; experiment: Healthy B cells pulsed with cyclic or linear peptide with or without protease inhibitor cocktail; IFN-γ assayed for T cell recognition; assay type: cell-based; settings: 10 ug peptide
Experimental: LCLs (tumour B cells) or healthy B cells were incubated with or without a protease inhibitor cocktail for 2 hrs at 37° C. […] The amino acid sequence of the cyclic peptide was […] (SEQ ID No: 278). The protease cleavage sequence “FR” is recognised by Cathepsin B and the T cell epitope […] is restricted to HLA-A*0201. The cyclic peptide was obtained from JPT Peptide Technologies. These cells were incubated with peptide-specific T cells overnight and IFN-γ assayed for T cell recognition of the processed peptide.

[6] = system: LCL target cells; experiment: Comparison of the plasma stability of cyclic peptide and APEC in LCL model (IFN-γ T cell recognition after plasma treatment); assay type: in vitro ADME, human; settings: no target cells
Experimental: as §1

[7] = protease inhibitor cocktail 2 hrs at 37° C

## FRGGANLVPMVATVAA [cyclic peptide]
[1]
  response with the protease inhibitors compared with T cells cultured with the cyclic peptide alone: very similar to the level seen when T cells were cultured with the cyclic peptide alone
[1]; [7]
  T cell recognition (IFN-γ) of pulsed target cells, with versus without protease inhibitors: much larger response to IFN-γ when cultured in the absence of the protease inhibitors
  decrease in the T cell recognition in the presence of the protease inhibitors: ~65%
[2]; LCLs pre-incubated with PIC, peptide treated 4 hrs with human plasma
  effect of protease inhibitor cocktail on response to plasma-treated peptide: there is a decrease when target cells were pre-incubated with the protease inhibitor cocktail
[2]; T cells alone, no target cells
  response of T cells alone labelled with the peptide, without and with serum treatment: very small response to the peptide which then disappears upon treatment of the peptide with serum
[3]
  response with the protease inhibitors compared with T cells cultured with the cyclic peptide alone: very similar to the level seen when T cells were cultured with the cyclic peptide alone
[3]; [7]
  decrease in the T cell recognition in the presence of the protease inhibitors: ~75%
[3]; protease inhibitor cocktail 2 hrs at 37° C, peptide-specific T cells overnight
  T cell recognition (IFN-γ) of pulsed target cells, with versus without protease inhibitors: much larger response to IFN-γ when cultured in the absence of the protease inhibitors
[4]
  response of T cells alone labelled with the peptide, without and with serum treatment: very small response to the peptide which then disappears upon treatment of the peptide with serum
[5]
  amount of IFN-γ with healthy B cells compared with LCL: significantly decreased amount of IFN-γ compared to the LCL treated with the cyclic peptide
[5]; [7]
  T cell recognition (IFN-γ) of pulsed healthy B cells, with versus without protease inhibitors: little difference in the response
[6]
  response of T cells alone labelled with the peptide, without and with serum treatment: very small response to the peptide which then disappears upon treatment of the peptide with serum
